System: cancer cell lines
Test: Multiplexed cytotoxicity assay: cell proliferation (relative cell count IC50, GI50)
Type: cell-based
Method: (§1) Cells are grown in RPMI1640, 10% FBS, 2 mM L-alanyl-L-Glutamine, 1 mM Na pyruvate or a special medium in a humidified atmosphere of 5% CO2 at 37° C. Cells are seeded into 384-well plates and incubated in a humidified atmosphere of 5% CO2 at 37° C. Compounds are added 24 h post cell seeding. At the same time, a time zero untreated cell plate is generated. After a 72 hour incubation period, cells are fixed and stained with fluorescently labeled antibodies and nuclear dye to allow visualization of nuclei, apoptotic cells and mitotic cells. Apoptotic cells are detected using an anti-active caspase-3 antibody. Mitotic cells are detected using an anti phospho-histone-3 antibody. Compounds are serially diluted 3.16-fold and assayed over 10 concentrations in a final assay concentration of 0.1% DMSO from the highest test concentration of 10 μM. Automated fluorescence microscopy was carried out using a Molecular Devices ImageXpress Micro XL high-content imager, and images are collected with a 4× objective.
(§2) Sixteen-bit TIFF images are acquired and analyzed with MetaXpress 5.1.0.41 software. Cell proliferation is measured by the signal intensity of the incorporated nuclear dye. The cell proliferation assay output is referred to as the relative cell count. To determine the cell proliferation end point, the cell proliferation data output is transformed to percentage of control (POC) using the following formula: POC=relative cell count(compound wells)/relative cell count(vehicle wells)×100
(§3) GI50 is the concentration needed to reduce the observed growth by half. This is the concentration that inhibits the growth to the level midway between growth in untreated cells and the number of cells seeded in the well (Time zero value). The IC50 values are calculated using nonlinear regression to fit data to a sigmoidal 4 point, 4 parameter One-Site dose response model, where: y(fit)=A+[(B−A)/(1+((C/x)^D))].
as §1, with “In another experiment, cells were grown” for “Cells are grown”, “Cells were” for “Cells are”, “Compounds were” for “Compounds are”, “plate was” for “plate is”, “cells were” for “cells are”, “images were” for “images are”
as §2, with “images were” for “images are”, “proliferation was” for “proliferation is”, “output was” for “output is”
as §3, with “GI50 refers to” for “GI50 is”, “This corresponds to” for “This is”, “values were” for “values are”

[1] = Homo sapiens, SK-N-AS, 72 h, SKNAS, CNS, Neuroblastoma
[2] = Homo sapiens, SK-N-DZ, 72 h, SKNDZ, CNS, Neuroblastoma
[3] = Homo sapiens, SK-N-FI, 72 h, SKNFI, CNS, Neuroblastoma
[4] = Homo sapiens, SK-NEP-1, SKNEP1 (Kidney)
[5] = Homo sapiens, SK-OV-3, 72 h, SKOV3, Female GU, Ovary, 72 h
[6] = Homo sapiens, SK-UT-1, 72 h, SKUT1, Soft Tissue, Sarcoma, 72 h
[7] = Homo sapiens, SNB-19, SNB19 (CNS, Glioma)
[8] = Homo sapiens, SNU1, 72 h, SNU1, Stomach, 72 h
[9] = Homo sapiens, SNU-5, 72 h, SNU5, Stomach, 72 h
[10] = Homo sapiens, SNU-16, 72 h, SNU16, Stomach, 72 h
[11] = Homo sapiens, SNU-423, SNU423 (Liver)
[12] = Homo sapiens, SNU-C2B, SNUC2B (Colon)
[13] = Homo sapiens, ST486, ST486 (Hematopoietic and lymphoid, Lymphoma)
[14] = Homo sapiens, SU-DHL10, SUDHL10 (Hematopoietic and lymphoid, Lymphoma)
[15] = Homo sapiens, SU-DHL-4, SUDHL4 (Hematopoietic and lymphoid, Lymphoma)
[16] = Homo sapiens, SU-DHL-5, SUDHL5 (Hematopoietic and lymphoid, Lymphoma)
[17] = Homo sapiens, SU-DHL-8, SUDHL8 (Hematopoietic and lymphoid, Lymphoma)
[18] = Homo sapiens, SU.86.86, 72 h, SU8686, Pancreas, 72 h
[19] = Homo sapiens, SUP-T1, SUPT1 (Hematopoietic and lymphoid, Lymphoma)
[20] = Homo sapiens, SW13, SW13 (Endocrine, Adrenal gland)
[21] = Homo sapiens, SW48, SW48 (Colon)
[22] = Homo sapiens, SW480, SW480 (Colon)
[23] = Homo sapiens, SW684, 72 h, SW684, Soft Tissue, Sarcoma, 72 h
[24] = Homo sapiens, SW837, SW837 (Colon)
[25] = Homo sapiens, SW872, 72 h, SW872, Soft Tissue, Sarcoma, 72 h
[26] = Homo sapiens, SW900, 72 h, SW900, Lung, SCLC, 72 h
[27] = Homo sapiens, SW948, SW948 (Colon)
[28] = Homo sapiens, SW 954, 72 h, SW954, Female GU, Vulva, 72 h
[29] = Homo sapiens, SW 962, 72 h, SW962, Female GU, Vulva, 72 h
[30] = Homo sapiens, SW982, 72 h, SW982, Soft Tissue, Sarcoma, 72 h
[31] = Homo sapiens, SW1088, SW1088 (CNS, Glioma)
[32] = Homo sapiens, SW1353, 72 h, SW1353, Soft Tissue, Osteosarcoma, 72 h
[33] = Homo sapiens, SW1417, SW1417 (Colon)
[34] = Homo sapiens, SW1463, SW1463 (Colon)
[35] = Homo sapiens, SW1783, SW1783 (CNS, Glioma)
[36] = Homo sapiens, SW-403, SW403 (Colon)
[37] = Homo sapiens, SW-620, SW620 (Colon)
[38] = Homo sapiens, SiHa, SIHA (Female GU, Cervix)
[39] = Homo sapiens, T47D, T47D (Breast)
[40] = Homo sapiens, T98G, T98G (CNS, Glioma)
[41] = Homo sapiens, TCC-SUP, TCCSUP (Bladder)
[42] = Homo sapiens, THP-1, THP1 (Hematopoietic and lymphoid, Leukemia)
[43] = Homo sapiens, U2OS, 72 h, Soft Tissue, Osteosarcoma
[44] = Homo sapiens, U138-MG, U138MG (CNS, Glioma)
[45] = Homo sapiens, U-87 MG, U87MG (CNS, Glioma)
[46] = Homo sapiens, U-118-MG, U118MG (CNS, Glioma)
[47] = Homo sapiens, UMUC3, UMUC3 (Bladder)
[48] = Homo sapiens, WM 266-4, 72 h, WM2664, Skin, Melanoma, 72 h
[49] = Homo sapiens, WiDr, WIDR (Colon)
[50] = Homo sapiens, YAPC, 72 h, Pancreas
[51] = Homo sapiens, ZR-75-1, ZR751 (Breast)
[52] = Hs 445, HS445 (Hematopoietic and lymphoid, Lymphoma)
[53] = KG1 (Hematopoietic and lymphoid, Leukemia)
[54] = KHOS-240S, 72 h, KHOS240S, Soft Tissue, Osteosarcoma
[55] = MS751, 72 h, MS751, Female GU, Ovary, 72 h
[56] = MX1 (Hematopoietic and lymphoid, Leukemia)
[57] = NAMALWA (Hematopoietic and lymphoid, Lymphoma)
[58] = OE21, 72 h, OE21, Head and Neck, Esophageal, 72 h
[59] = RAMOSRA1 (Hematopoietic and lymphoid, Lymphoma)
[60] = SKO-007, 72 h, SKO007, Hematopoietic and lymphoid, Myeloma, 72 h
[61] = SR (Hematopoietic and lymphoid, Lymphoma)
[62] = SW579, 72 h, SW579, Endocrine, Thyroid, 72 h
[63] = TE 381.T, 72 h, TE381T, Soft Tissue, Sarcoma
[64] = TF1 (Hematopoietic and lymphoid, Leukemia)
[65] = TUR (Hematopoietic and lymphoid, Lymphoma)

## C[C@]1(C(N)=O)CC[C@@H](n2c(Nc3c(Cl)cc(Cl)cc3Cl)nc3cnc(N[C@@H]4CCOC[C@H]4F)nc32)CC1 [Compound 1, cis-4-[2-{[(3S,4R)-3-fluorooxan-4-yl]amino}-8-(2,4,6-trichloroanilino)-9H-purin-9-yl]-1-methylcyclohexane-1-carboxamide]
[1]
  GI50: 48.9 nM
  IC50: 132 nM
[2]
  GI50: 7400 nM
  IC50: > 10000 nM
[3]
  GI50: 15.1 nM
  IC50: 135 nM
[4]
  GI50: > 10000 nM
  IC50: > 10000 nM
[5]
  GI50: 547 nM
  IC50: > 10000 nM
[6]
  GI50: > 10000 nM
  IC50: > 10000 nM
[7]
  GI50: 163 nM
  IC50: 244 nM
[8]
  GI50: 35.5 nM
  IC50: 63.1 nM
[9]
  GI50: 36.8 nM
  IC50: 94.3 nM
[10]
  GI50: > 10000 nM
  IC50: > 10000 nM
[11]
  GI50: 192 nM
  IC50: 276 nM
[12]
  GI50: 54.4 nM
  IC50: 722 nM
[13]
  GI50: 5020 nM
  IC50: 6140 nM
[14]
  GI50: 1230 nM
  IC50: 1400 nM
[15]
  GI50: 168 nM
  IC50: 332 nM
[16]
  GI50: 1.1 nM
  IC50: 1.3 nM
[17]
  GI50: 19.3 nM
  IC50: 40.6 nM
[18]
  GI50: 63.5 nM
  IC50: 132 nM
[19]
  GI50: 19.6 nM
  IC50: 46.6 nM
[20]
  GI50: 71.1 nM
  IC50: 135 nM
[21]
  GI50: 1.8 nM
  IC50: 3.1 nM
[22]
  GI50: 18.4 nM
  IC50: 31.1 nM
[23]
  GI50: 86.9 nM
  IC50: 370 nM
[24]
  GI50: 172 nM
  IC50: 348 nM
[25]
  GI50: 105 nM
  IC50: 136 nM
[26]
  GI50: 21.6 nM
  IC50: 39.9 nM
[27]
  GI50: 195 nM
  IC50: 327 nM
[28]
  GI50: 114 nM
  IC50: 142 nM
[29]
  GI50: 82.8 nM
  IC50: 232 nM
[30]
  GI50: 15.6 nM
  IC50: 61.4 nM
[31]
  GI50: 3350 nM
  IC50: 5980 nM
[32]
  GI50: 184 nM
  IC50: 292 nM
[33]
  GI50: 8.8 nM
  IC50: 35.1 nM
[34]
  GI50: 135 nM
  IC50: 181 nM
[35]
  GI50: 5920 nM
  IC50: 9850 nM
[36]
  GI50: 47.6 nM
  IC50: 173 nM
[37]
  GI50: 49.2 nM
  IC50: 79.8 nM
[38]
  GI50: > 10000 nM
  IC50: > 10000 nM
[39]
  GI50: > 10000 nM
  IC50: > 10000 nM
[40]
  GI50: > 10000 nM
  IC50: > 10000 nM
[41]
  GI50: 2210 nM
  IC50: 6590 nM
[42]
  GI50: 25.1 nM
  IC50: 49.5 nM
[43]
  GI50: 230 nM
  IC50: 373 nM
[44]
  GI50: 53 nM
  IC50: > 10000 nM
[45]
  GI50: 69.2 nM
  IC50: 101 nM
[46]
  GI50: 175 nM
  IC50: > 10000 nM
[47]
  GI50: 149 nM
  IC50: 201 nM
[48]
  GI50: 12 nM
  IC50: 35.4 nM
[49]
  GI50: 10.4 nM
  IC50: 13.3 nM
[50]
  GI50: 183 nM
  IC50: 670 nM
[51]
  GI50: 94.3 nM
  IC50: 7700 nM
[52]
  GI50: 14.3 nM
  IC50: 37.7 nM
Hs766T, 72 h, Pancreas
  GI50: 34.3 nM
  IC50: 79.3 nM
J82 (Bladder)
  GI50: > 10000 nM
  IC50: > 10000 nM
[53]
  GI50: 1.7 nM
  IC50: 32.5 nM
[54]
  GI50: > 10000 nM
  IC50: > 10000 nM
KPL-1, KPL1 (Breast)
  GI50: > 10000 nM
  IC50: > 10000 nM
[55]
  GI50: 6910 nM
  IC50: 9510 nM
MT3 (Breast)
  GI50: 674 nM
  IC50: 1080 nM
[56]
  GI50: 40.1 nM
  IC50: 61.9 nM
[57]
  GI50: 18.1 nM
  IC50: 23.9 nM
OCUG-1, OCUG1 (Liver)
  GI50: 464 nM
  IC50: 1290 nM
[58]
  GI50: 93.9 nM
  IC50: 124 nM
[59]
  GI50: 3660 nM
  IC50: 3840 nM
RKO (Colon)
  GI50: 35.3 nM
  IC50: 40.5 nM
RKOAS451, RKOAS451 (Colon)
  GI50: 40.5 nM
  IC50: 44.9 nM
SH4 (Skin, Melanoma)
  GI50: 20.8 nM
  IC50: 29 nM
[60]
  GI50: 27.4 nM
  IC50: 482 nM
[61]
  GI50: 1420 nM
  IC50: 1840 nM
[62]
  GI50: 47.7 nM
  IC50: 70.8 nM
T24 (Bladder)
  GI50: 233 nM
  IC50: 274 nM
[63]
  GI50: 7.6 nM
  IC50: 12.8 nM
[64]
  GI50: 1.5 nM
  IC50: 9.5 nM
[65]
  GI50: 41.5 nM
  IC50: 53.9 nM
Y79 (Eye-retinoblastoma, Eye)
  GI50: > 10000 nM
  IC50: > 10000 nM

From patent publication US10513519B2, “Solid forms of (1S,4S)-4-(2-(((3S,4R)-3-fluorotetrahydro-2H-pyran-4-yl)amino)-8-((2,4,6-trichlorophenyl)amino)-9H-purin-9-yl)-1-methylcyclohexane-1-carboxamide and methods of their use” (Signal Pharmaceuticals, LLC, priority 2016, dated 2019)
